Data: PMC5218480 (PLoS ONE, 2017)

System: MV-4-11 cells
Assay: Gene expression microarray analysis (Affymetrix PrimeView) and GSEA
Type: cell-based, human
Set-up: RFU PODN (11730768_x_at) / Fold change /veh PODN (11730768_x_at) / RFU LINC00158 (11744669_a_at) / Fold change /veh LINC00158 (11744669_a_at) / RFU DUSP10 (11751237_a_at) / Fold change /veh DUSP10 (11751237_a_at) / RFU ID3 (11757404_x_at) / Fold change /veh ID3 (11757404_x_at) / RFU PLEKHG5 (11737974_s_at) / Fold change /veh PLEKHG5 (11737974_s_at) / RFU LRRC4B (11730491_at) / Fold change /veh LRRC4B (11730491_at) / RFU GIMAP4 (11747438_a_at) / Fold change /veh GIMAP4 (11747438_a_at) / RFU KRT8 (11758183_x_at) / Fold change /veh KRT8 (11758183_x_at) / RFU CNN1 (11734310_a_at) / Fold change /veh CNN1 (11734310_a_at) / RFU VPS37D (11726825_at) / Fold change /veh VPS37D (11726825_at) / RFU C10orf10 (11716522_x_at) / Fold change /veh C10orf10 (11716522_x_at) / RFU KIR2DL2 /// KIR2DL4 /// KIR2DL5A /// KIR2DL5B /// KIR2DS1 /// KIR2DS2 /// KIR2DS3 /// KIR2DS4 /// KIR3DL3 /// KIR3DL3 /// KIR3DS1 (11738374_at) / Fold change /veh KIR2DL2 /// KIR2DL4 /// KIR2DL5A /// KIR2DL5B /// KIR2DS1 /// KIR2DS2 /// KIR2DS3 /// KIR2DS4 /// KIR3DL3 /// KIR3DL3 /// KIR3DS1 (11738374_at) / RFU C1QL1 (11718748_at) / Fold change /veh C1QL1 (11718748_at) / RFU TMPRSS4 (11747572_a_at) / Fold change /veh TMPRSS4 (11747572_a_at) / RFU HAMP (11756126_x_at) / Fold change /veh HAMP (11756126_x_at) / RFU RNFT2 (11725882_a_at) / Fold change /veh RNFT2 (11725882_a_at) / RFU NR4A2 (11747474_a_at) / Fold change /veh NR4A2 (11747474_a_at) / RFU ABCC12 (11746883_a_at) / Fold change /veh ABCC12 (11746883_a_at) / RFU TMEM136 (11760407_x_at) / Fold change /veh TMEM136 (11760407_x_at) / RFU CLDN22 /// WWC2 (11732394_at) / Fold change /veh CLDN22 /// WWC2 (11732394_at) / RFU HLA-DPB1 (11760878_x_at) / Fold change /veh HLA-DPB1 (11760878_x_at) / RFU SPINT1 (11716480_a_at) / Fold change /veh SPINT1 (11716480_a_at) / RFU GAP43 (11754022_s_at) / Fold change /veh GAP43 (11754022_s_at) / RFU A4GNT (11735810_at) / Fold change /veh A4GNT (11735810_at) / RFU PRB3 (11715151_x_at) / Fold change /veh PRB3 (11715151_x_at) / RFU TUBB4B (11761932_at) / Fold change /veh TUBB4B (11761932_at) / RFU CAPN14 (11732068_a_at) / Fold change /veh CAPN14 (11732068_a_at) / RFU TMCC2 (11721928_a_at) / Fold change /veh TMCC2 (11721928_a_at) / RFU IRGQ (11745062_a_at) / Fold change /veh IRGQ (11745062_a_at) / RFU FAM174B (11720279_a_at) / Fold change /veh FAM174B (11720279_a_at) / RFU TMPRSS4 (11748680_a_at) / Fold change /veh TMPRSS4 (11748680_a_at) / RFU FAM212B (11763350_a_at) / Fold change /veh FAM212B (11763350_a_at) / RFU PLEKHG5 (11743358_a_at) / Fold change /veh PLEKHG5 (11743358_a_at) / RFU ZSCAN30 (11745921_a_at) / Fold change /veh ZSCAN30 (11745921_a_at) / RFU CMKLR1 (11741424_a_at) / Fold change /veh CMKLR1 (11741424_a_at) / RFU LOC101060620 /// MAPK8IP1 (11723275_at) / Fold change /veh LOC101060620 /// MAPK8IP1 (11723275_at) / RFU SPTSSB (11747773_x_at) / Fold change /veh SPTSSB (11747773_x_at) / RFU PRSS12 (11739890_at) / Fold change /veh PRSS12 (11739890_at) / RFU BIN1 (11741810_x_at) / Fold change /veh BIN1 (11741810_x_at) / RFU WNT11 (11732464_a_at) / Fold change /veh WNT11 (11732464_a_at) / RFU C10orf10 (11716521_a_at) / Fold change /veh C10orf10 (11716521_a_at) / RFU C5orf56 (11738089_at) / Fold change /veh C5orf56 (11738089_at) / RFU CYB561 (11721691_x_at) / Fold change /veh CYB561 (11721691_x_at) / RFU ANKRD19P (11752326_a_at) / Fold change /veh ANKRD19P (11752326_a_at) / RFU OR2T12 /// OR2T33 /// OR2T8 (11738714_s_at) / Fold change /veh OR2T12 /// OR2T33 /// OR2T8 (11738714_s_at) / RFU VCAN (11748164_a_at) / Fold change /veh VCAN (11748164_a_at) / RFU JSRP1 (11732532_at) / Fold change /veh JSRP1 (11732532_at) / RFU KRTAP10-11 (11738290_x_at) / Fold change /veh KRTAP10-11 (11738290_x_at) / RFU MYO3A (11730013_a_at) / Fold change /veh MYO3A (11730013_a_at) / RFU EBF3 (11725865_a_at) / Fold change /veh EBF3 (11725865_a_at) / RFU CAMK2N1 (11719241_x_at) / Fold change /veh CAMK2N1 (11719241_x_at) / RFU C5orf56 (11738088_a_at) / Fold change /veh C5orf56 (11738088_a_at) / RFU OLFML3 (11715873_a_at) / Fold change /veh OLFML3 (11715873_a_at) / RFU LOC100653217 /// NTM (11731650_a_at) / Fold change /veh LOC100653217 /// NTM (11731650_a_at) / RFU MAPK11 (11762145_a_at) / Fold change /veh MAPK11 (11762145_a_at) / RFU FIZ1 (11724087_x_at) / Fold change /veh FIZ1 (11724087_x_at) / RFU OASL (11726364_x_at) / Fold change /veh OASL (11726364_x_at) / RFU SOX15 (11748057_x_at) / Fold change /veh SOX15 (11748057_x_at) / RFU CD79A (11719716_a_at) / Fold change /veh CD79A (11719716_a_at) / RFU HIST1H1D (11736915_at) / Fold change /veh HIST1H1D (11736915_at) / RFU CASKIN2 (11723855_a_at) / Fold change /veh CASKIN2 (11723855_a_at) / RFU LOC730098 (11760151_x_at) / Fold change /veh LOC730098 (11760151_x_at) / RFU OR4N2 (11742367_at) / Fold change /veh OR4N2 (11742367_at) / RFU PRRT2 (11749266_a_at) / Fold change /veh PRRT2 (11749266_a_at) / RFU SNX32 (11753110_a_at) / Fold change /veh SNX32 (11753110_a_at) / RFU CDHR5 (11726645_a_at) / Fold change /veh CDHR5 (11726645_a_at) / RFU RCAN1 (11760418_a_at) / Fold change /veh RCAN1 (11760418_a_at) / RFU FAM167A (11723789_a_at) / Fold change /veh FAM167A (11723789_a_at) / RFU FAM26E (11764081_at) / Fold change /veh FAM26E (11764081_at) / RFU ISYNA1 (11749810_s_at) / Fold change /veh ISYNA1 (11749810_s_at) / RFU ACY1 (11761880_at) / Fold change /veh ACY1 (11761880_at) / RFU 11764098_at / Fold change /veh 11764098_at / RFU SAMD14 (11745864_x_at) / Fold change /veh SAMD14 (11745864_x_at) / RFU NPB (11741838_a_at) / Fold change /veh NPB (11741838_a_at) / RFU TMPRSS6 (11731388_a_at) / Fold change /veh TMPRSS6 (11731388_a_at) / RFU KRTAP10-2 (11738614_at) / Fold change /veh KRTAP10-2 (11738614_at) / RFU ARHGAP8 /// PRR5-ARHGAP8 (11727945_x_at) / Fold change /veh ARHGAP8 /// PRR5-ARHGAP8 (11727945_x_at) / RFU KRTAP5-7 /// NADSYN1 (11734609_at) / Fold change /veh KRTAP5-7 /// NADSYN1 (11734609_at) / RFU RASL12 (11751679_a_at) / Fold change /veh RASL12 (11751679_a_at) / RFU CDKN2B (11736163_a_at) / Fold change /veh CDKN2B (11736163_a_at) / RFU PRF1 (11729649_at) / Fold change /veh PRF1 (11729649_at) / RFU, ZNF638 /// ZNF638-IT1 / Fold change vs veh, ZNF638 /// ZNF638-IT1 / RFU, PANK3 / Fold change vs veh, PANK3 / RFU, SH3YL1 / Fold change vs veh, SH3YL1 / RFU, ZEB2 / Fold change vs veh, ZEB2 / RFU, NRIP1 / Fold change vs veh, NRIP1 / RFU, PTTG1IP / Fold change vs veh, PTTG1IP / RFU, CAPN2 / Fold change vs veh, CAPN2 / RFU, MED14 / Fold change vs veh, MED14 / RFU, SNORA58 / Fold change vs veh, SNORA58 / RFU, C1orf63 / Fold change vs veh, C1orf63 / RFU, LRRFIP1 / Fold change vs veh, LRRFIP1 / RFU, NDUFAF7 / Fold change vs veh, NDUFAF7 / RFU, SLC12A2 / Fold change vs veh, SLC12A2 / RFU, IBTK / Fold change vs veh, IBTK / RFU, ESF1 / Fold change vs veh, ESF1 / Fold change vs veh, TMEM50B / RFU, TAOK1 / Fold change vs veh, TAOK1 / RFU, ACBD3 / Fold change vs veh, ACBD3 / RFU, TMA16 / Fold change vs veh, TMA16 / RFU, RWDD3 / Fold change vs veh, RWDD3 / RFU, BCAT1 / Fold change vs veh, BCAT1 / RFU, EDEM3 / Fold change vs veh, EDEM3 / RFU, TMEM33 / Fold change vs veh, TMEM33 / RFU, WDR75 / Fold change vs veh, WDR75 / RFU, AHCTF1 / Fold change vs veh, AHCTF1 / RFU, TFRC / Fold change vs veh, TFRC / RFU, ZDHHC17 / Fold change vs veh, ZDHHC17 / RFU, NOM1 / Fold change vs veh, NOM1 / RFU, ARL8B / Fold change vs veh, ARL8B / RFU, ZBTB11 / Fold change vs veh, ZBTB11 / RFU, TAMM41 / Fold change vs veh, TAMM41 / RFU, KIAA1704 /// LOC100996395 / Fold change vs veh, KIAA1704 /// LOC100996395 / RFU, ING1 / Fold change vs veh, ING1 / RFU, TRMT61B / Fold change vs veh, TRMT61B / RFU, FUBP3 / Fold change vs veh, FUBP3 / RFU, TP53 / Fold change vs veh, TP53 / RFU, TNKS2 / Fold change vs veh, TNKS2 / RFU, ZFP14 / Fold change vs veh, ZFP14 / RFU, ACTR2 / Fold change vs veh, ACTR2 / RFU, PPP3R1 / Fold change vs veh, PPP3R1 / RFU, PIK3R1 / Fold change vs veh, PIK3R1 / RFU, HNRNPA1 / Fold change vs veh, HNRNPA1 / RFU, RNF170 / Fold change vs veh, RNF170 / RFU, ZNF28 / Fold change vs veh, ZNF28 / RFU, RNGTT / Fold change vs veh, RNGTT / RFU, OGT / Fold change vs veh, OGT / RFU, BRD1 / Fold change vs veh, BRD1 / RFU, MARS / Fold change vs veh, MARS / RFU, ZNF655 / Fold change vs veh, ZNF655 / RFU, FAHD1 / Fold change vs veh, FAHD1 / RFU, BDP1 / Fold change vs veh, BDP1 / RFU, LRRCC1 / Fold change vs veh, LRRCC1 / RFU, ARID1A / Fold change vs veh, ARID1A / RFU, ZNF146 / Fold change vs veh, ZNF146 / RFU, ZNF330 / Fold change vs veh, ZNF330 / RFU, GPN3 / Fold change vs veh, GPN3 / RFU, C9orf123 / Fold change vs veh, C9orf123 / RFU, N4BP2L2 / Fold change vs veh, N4BP2L2 / RFU, ARFIP1 / Fold change vs veh, ARFIP1 / RFU, FAM179B / Fold change vs veh, FAM179B / RFU, BCL10 / Fold change vs veh, BCL10 / RFU, UHRF1BP1L / Fold change vs veh, UHRF1BP1L / RFU, BET1 / Fold change vs veh, BET1 / RFU, CNOT2 / Fold change vs veh, CNOT2 / RFU, ZNF268 / Fold change vs veh, ZNF268 / Fold change vs veh, ZNF507 / RFU, DGCR2 / Fold change vs veh, DGCR2 / RFU, WDSUB1 / Fold change vs veh, WDSUB1 / Fold change vs veh, HSP90B1 /// MIR3652 / RFU, ADSS / Fold change vs veh, ADSS / RFU, GK / Fold change vs veh, GK / RFU, ZNF148 / Fold change vs veh, ZNF148 / RFU, TAF9 / Fold change vs veh, TAF9 / RFU, SLC1A5 / Fold change vs veh, SLC1A5 / RFU, SLMO2 / Fold change vs veh, SLMO2 / RFU, ABCC4 / Fold change vs veh, ABCC4 / RFU, LOC101060439 /// RAP1B / Fold change vs veh, LOC101060439 /// RAP1B / RFU, RFX7 / Fold change vs veh, RFX7 / RFU, GTPBP10 / Fold change vs veh, GTPBP10 / RFU, CNEP1R1 / Fold change vs veh, CNEP1R1 / RFU, BIVM-ERCC5 /// ERCC5 / Fold change vs veh, BIVM-ERCC5 /// ERCC5 / RFU, ILF3 / Fold change vs veh, ILF3 / RFU 11762660_at / Fold change /veh 11762660_at / RFU VCAN (11757783_s_at) / Fold change /veh VCAN (11757783_s_at) / RFU DDX43 (11728927_at) / Fold change /veh DDX43 (11728927_at) / RFU KRT8 (11758188_x_at) / Fold change /veh KRT8 (11758188_x_at) / RFU NKD1 (11759106_at) / Fold change /veh NKD1 (11759106_at) / RFU SRD5A1 (11742802_a_at) / Fold change /veh SRD5A1 (11742802_a_at) / RFU TPSAB1 /// TPSB2 (11721975_s_at) / Fold change /veh TPSAB1 /// TPSB2 (11721975_s_at) / RFU GSTM3 (11746129_a_at) / Fold change /veh GSTM3 (11746129_a_at) / RFU IL23R (11737362_x_at) / Fold change /veh IL23R (11737362_x_at) / RFU TMEM51 (11727254_a_at) / Fold change /veh TMEM51 (11727254_a_at) / RFU PIWIL2 (11732686_x_at) / Fold change /veh PIWIL2 (11732686_x_at) / RFU ORM1 (11744905_x_at) / Fold change /veh ORM1 (11744905_x_at) / RFU CCDC152 (11743942_at) / Fold change /veh CCDC152 (11743942_at) / RFU ECM1 (11717891_a_at) / Fold change /veh ECM1 (11717891_a_at) / RFU IL23R (11748794_a_at) / Fold change /veh IL23R (11748794_a_at) / RFU TNFAIP8L3 (11732012_x_at) / Fold change /veh TNFAIP8L3 (11732012_x_at) / RFU MBOAT4 (11741988_at) / Fold change /veh MBOAT4 (11741988_at) / RFU 11764193_at / Fold change /veh 11764193_at / RFU TMEM53 (11763286_at) / Fold change /veh TMEM53 (11763286_at) / RFU MAGEB2 (11727129_at) / Fold change /veh MAGEB2 (11727129_at) / RFU TMEM200A (11744735_a_at) / Fold change /veh TMEM200A (11744735_a_at) / RFU CCDC152 (11751479_a_at) / Fold change /veh CCDC152 (11751479_a_at) / RFU FAM211A (11726209_a_at) / Fold change /veh FAM211A (11726209_a_at) / RFU RGS16 (11746705_a_at) / Fold change /veh RGS16 (11746705_a_at) / RFU VCAN (11755009_s_at) / Fold change /veh VCAN (11755009_s_at) / RFU RHOB (11743442_s_at) / Fold change /veh RHOB (11743442_s_at) / RFU RGS16 (11720943_a_at) / Fold change /veh RGS16 (11720943_a_at) / RFU RGS16 (11720944_at) / Fold change /veh RGS16 (11720944_at) / RFU, VPS4B / Fold change vs veh, VPS4B / RFU, CREB1 / Fold change vs veh, CREB1 / RFU, DNAJC13 / Fold change vs veh, DNAJC13 / RFU, GNAQ / Fold change vs veh, GNAQ / RFU, CDK5R1 / Fold change vs veh, CDK5R1 / RFU, ZRANB3 / Fold change vs veh, ZRANB3 / RFU, CUL4A / Fold change vs veh, CUL4A / RFU, CCNY / Fold change vs veh, CCNY / RFU, UFL1 / Fold change vs veh, UFL1 / RFU, COG3 / Fold change vs veh, COG3 / RFU, DIAPH2 / Fold change vs veh, DIAPH2 / RFU, SKA2 / Fold change vs veh, SKA2 / RFU, AFF3 / Fold change vs veh, AFF3 / RFU, LMF1 / Fold change vs veh, LMF1 / RFU, IPO11 / Fold change vs veh, IPO11 / RFU, DFFB / Fold change vs veh, DFFB / RFU, FOXP1 / Fold change vs veh, FOXP1 / RFU, CARD8 / Fold change vs veh, CARD8 / RFU, STRN3 / Fold change vs veh, STRN3 / RFU, ADK / Fold change vs veh, ADK / RFU, RASSF2 / Fold change vs veh, RASSF2 / RFU, WIPF1 / Fold change vs veh, WIPF1 / RFU, LARP1B / Fold change vs veh, LARP1B / RFU, RASA1 / Fold change vs veh, RASA1 / RFU, RB1 / Fold change vs veh, RB1 / RFU, PPFIA1 / Fold change vs veh, PPFIA1 / RFU, MAT2A / Fold change vs veh, MAT2A / RFU, CCT5 / Fold change vs veh, CCT5 / RFU, WDR92 / Fold change vs veh, WDR92 / RFU, CUX1 / Fold change vs veh, CUX1 / RFU, TTC7A / Fold change vs veh, TTC7A / RFU, TMEM135 / Fold change vs veh, TMEM135 / RFU, DEPTOR / Fold change vs veh, DEPTOR / RFU, CPM / Fold change vs veh, CPM / RFU, DNAJB6 / Fold change vs veh, DNAJB6 / RFU, CACNA2D3 / Fold change vs veh, CACNA2D3 / RFU, DTX4 / Fold change vs veh, DTX4 / RFU, TFCP2 / Fold change vs veh, TFCP2 / RFU, GMCL1 /// GMCL1P1 / Fold change vs veh, GMCL1 /// GMCL1P1 / RFU, AEBP2 / Fold change vs veh, AEBP2 / RFU, SNHG1 /// SNORD22 /// SNORD25 /// SNORD26 /// SNORD27 /// SNORD28 /// SNORD29 /// SNORD31 / Fold change vs veh, SNHG1 /// SNORD22 /// SNORD25 /// SNORD26 /// SNORD27 /// SNORD28 /// SNORD29 /// SNORD31 / Fold change (Aza/veh), C12orf56 (ProbeSet 11735607_a_at) / Fold change (ACY-1035/veh), C12orf56 (ProbeSet 11735607_a_at) / Fold change (Aza/veh), FGFR1OP (ProbeSet 11751329_s_at) / Fold change (ACY-1035/veh), FGFR1OP (ProbeSet 11751329_s_at) / Fold change (Aza/veh), VPS36 (ProbeSet 11739960_a_at) / Fold change (ACY-1035/veh), VPS36 (ProbeSet 11739960_a_at) / RFU SYPL1 (11715823_x_at) / Fold change /veh SYPL1 (11715823_x_at) / RFU IGFBP7 (11715501_s_at) / Fold change /veh IGFBP7 (11715501_s_at) / RFU REEP3 (11722064_at) / Fold change /veh REEP3 (11722064_at) / RFU IGLL1 (11728026_x_at) / Fold change /veh IGLL1 (11728026_x_at): dose or concentration left out as unconfirmed
Settings: ProbeSet 11749477_a_at; LIST B

In the case of `Nc1ncn([C@@H]2O[C@H](CO)[C@@H](O)[C@H]2O)c(=O)n1` [azacitidine], the “RFU, EDEM3” value was 49.32 RFU.
